Here are results for two compounds from patent publication US6534505B2, “Therapeutic polymorphs of a GABA-A alpha-5 inverse agonist and pamoate formulations of the same” (Merck & Co., Inc., priority 1998, dated 2003).

Series [1] is described as follows: time dependent solubility in 2.5% aqueous di-sodium pamoate solution by HPLC. In kind it is physicochemical. The procedure: To a stirred, light protected glass vial was added 23.0 mL 2.5% aqueous di-sodium pamoate solution and 42 mg 3-(5-methylisoxazol-3-yl)-6-(1-methyl-1,2,3-triazol-4-yl)methyloxy-1,2,4-triazolo[3,4-a]phthalazine. Aliquots were removed by 3 mL syringe at various time intervals, passed through 0.22 μm Millex-GV low protein binding syringe filters, and diluted to appropriate concentrations with 50/50 MeCN/H2O for HPLC analysis.

Series [2] addresses T1, human GABAA receptors containing the α5 subunit stably expressed in Ltk cells (Homo sapiens, UniProt P18507+P31644).
T1 construct: expressed in transfected cells; host or cells: Ltk cells (mouse fibroblasts), stably expressing
T1 sequence (P31644 32-462): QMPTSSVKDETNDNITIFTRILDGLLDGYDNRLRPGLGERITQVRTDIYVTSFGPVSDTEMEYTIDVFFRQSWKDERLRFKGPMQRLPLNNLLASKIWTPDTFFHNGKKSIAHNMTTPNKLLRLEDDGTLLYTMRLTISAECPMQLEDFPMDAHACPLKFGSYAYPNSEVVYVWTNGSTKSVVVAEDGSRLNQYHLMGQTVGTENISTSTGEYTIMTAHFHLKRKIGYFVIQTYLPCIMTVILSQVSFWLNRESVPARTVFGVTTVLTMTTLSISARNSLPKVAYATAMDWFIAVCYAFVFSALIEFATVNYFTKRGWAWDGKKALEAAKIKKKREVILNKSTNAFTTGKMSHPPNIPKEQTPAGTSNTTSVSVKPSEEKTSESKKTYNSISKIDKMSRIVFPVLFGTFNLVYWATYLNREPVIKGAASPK
T1 sequence (P18507 40-467 limits assumed): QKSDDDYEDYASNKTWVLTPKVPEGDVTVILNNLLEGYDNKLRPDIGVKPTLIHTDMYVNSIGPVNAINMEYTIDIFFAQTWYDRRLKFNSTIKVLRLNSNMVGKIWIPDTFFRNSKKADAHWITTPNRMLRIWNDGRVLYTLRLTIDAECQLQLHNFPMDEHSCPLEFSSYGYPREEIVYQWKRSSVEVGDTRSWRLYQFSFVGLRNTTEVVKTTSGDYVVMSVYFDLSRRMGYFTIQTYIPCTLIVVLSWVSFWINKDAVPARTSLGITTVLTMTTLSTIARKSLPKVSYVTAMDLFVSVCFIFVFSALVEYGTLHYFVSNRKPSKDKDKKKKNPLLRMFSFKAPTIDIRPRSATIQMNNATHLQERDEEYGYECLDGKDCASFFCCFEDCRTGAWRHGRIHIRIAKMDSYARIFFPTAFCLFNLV
T1 sequence (P28472 26-473 partner): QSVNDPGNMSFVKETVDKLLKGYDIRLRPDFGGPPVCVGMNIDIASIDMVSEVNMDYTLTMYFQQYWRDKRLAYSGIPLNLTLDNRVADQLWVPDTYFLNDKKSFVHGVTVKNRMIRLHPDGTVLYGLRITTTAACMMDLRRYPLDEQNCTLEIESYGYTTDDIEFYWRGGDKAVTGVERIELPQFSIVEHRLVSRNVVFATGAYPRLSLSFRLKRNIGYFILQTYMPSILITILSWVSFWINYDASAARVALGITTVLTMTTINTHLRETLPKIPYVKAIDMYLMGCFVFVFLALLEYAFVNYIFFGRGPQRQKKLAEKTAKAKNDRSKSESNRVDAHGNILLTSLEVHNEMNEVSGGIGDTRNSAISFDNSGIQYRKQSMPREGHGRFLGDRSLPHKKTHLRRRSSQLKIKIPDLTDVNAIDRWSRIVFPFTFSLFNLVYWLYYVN
Nature of the series: displacement of [3H]-flumazenil ([3H]Ro 15-1788) from the benzodiazepine binding site. Particulars: read-out: Ki value for displacement of [3H]Ro 15-1788 from the α5 subunit of the human GABAA receptor. (In general: Displacement assays read how much labelled ligand stays bound in the presence of the test substance.)

The subject of another series is receptor. The series can be described thus: receptor occupancy at the minimum effective dose. The series is classed as in vivo, rat. Particulars: at the minimum effective dose of 0.3 mg/kg.
Series [3] in a line: exposure of the anhydrous form to pure water (XRPD of solids). In kind it is physicochemical. The procedure: To an Eppendorf tube was added 1 mL USP water and 20 mg 3-(5-methylisoxazol-3-yl)-6-(1-methyl-1,2, 3-triazol-4-yl)methyloxy-1,2, 4-triazolo[3,4-a]phthalazine. The resulting suspension was vortexed for 10 seconds, then light protected with aluminium foil and placed on a rotary mixer for 72 hours. The solids were then vacuum filtered off and rinsed with 2xl mL water. Solids were partially wet when first analyzed by XRPD, afterward they were dried by house vacuum for 48 hours before more XRPD analysis.
The XRPD data have been described earlier with the exception of the incompletely converted material from the synthesis in water. […] Conversion may take place more rapidly if solubility is increased by the addition of di-sodium pamoate or by other means. The di-hydrate may also be prepared using a 10% solution of MeCN in water.

A further series has as its system rat. Nature of the series: rat water maze test (cognition enhancement). The series is classed as in vivo.

Converted amounts (≈) assume the structure as drawn. A value given as a limit tells only on which side of the number the result lay.

As a reminder, the Ki is the equilibrium dissociation constant of an inhibitor or competing ligand from its target. For the compound `Cc1cc(-c2nnc3c4ccccc4c(OCc4cn(C)nn4)nn23)no1` [L-822, 179, 3-(5-methylisoxazol-3-yl)-6-(1-methyl-1,2,3-triazol-4-yl)methyloxy-1,2,4-triazolo[3,4-a]phthalazine], in series [1] (2.5% aqueous di-sodium pamoate solution, aqueous with cosolvent or surfactant or cyclodextrin, thermodynamic from solid, 5 minutes (0.08 h), read-out: Concentration (solubility by HPLC)), the solubility at 5 minutes is 1890 µg/mL (≈ 5.22 mM). Besides, the solubility at 90 minutes in series [1] (2.5% aqueous di-sodium pamoate solution, aqueous with cosolvent or surfactant or cyclodextrin, thermodynamic from solid, 90 minutes (1.50 h), read-out: Concentration (solubility by HPLC)) came to 1920 µg/mL (≈ 5.3 mM). The solubility at 930 minutes in series [1] (2.5% aqueous di-sodium pamoate solution, aqueous with cosolvent or surfactant or cyclodextrin, thermodynamic from solid, 930 minutes (15.5 h), read-out: Concentration (solubility by HPLC)) came to 1410 µg/mL (≈ 3.89 mM). Also, the solubility at 1500 minutes in series [1] (2.5% aqueous di-sodium pamoate solution, aqueous with cosolvent or surfactant or cyclodextrin, thermodynamic from solid, 1500 minutes (25.0 h), read-out: Concentration (solubility by HPLC)) amounted to 1290 µg/mL (≈ 3.56 mM). In addition, the solubility at 2910 minutes in series [1] (2.5% aqueous di-sodium pamoate solution, aqueous with cosolvent or surfactant or cyclodextrin, thermodynamic from solid, 2910 minutes (48.5 h), read-out: Concentration (solubility by HPLC)) was found to be 1240 µg/mL (≈ 3.42 mM). Further, the “% of 5 Minute Value” in series [1] (5 minutes (0.08 h)) amounted to 100.0%; in series [1] (90 minutes (1.50 h)), 101.4%; in series [1] (930 minutes (15.5 h)) it was 74.5%; in series [1] (1500 minutes (25.0 h)), 68.0%; in series [1] (2910 minutes (48.5 h)) it was 65.4%. Moreover, in series [1] (summary of Table 1), the “decrease in solubility over time, % of the original solubility after 5 minutes” value is on record as around 65%. For the same compound, in series [2], the Ki is at most 100 nM. Further, the receptor occupancy in the series on receptor was determined as 40%. Also, in series [3], the “solubility in pure water” value was “extreme insolubility”. Also, the minimum effective dose in the series on rat came out at 0.3 mg/kg. The enhancement of cognition entry with rat (demonstrated at 0.3 mg/kg and 3 mg/kg) was “enhance cognition”.

Usually melting point stands for the temperature of the solid-liquid transition. In the case of `Cc1cc(-c2nnc3c4ccccc4c(OCc4cccc(Br)n4)nn23)no1` [compound 2, 6-(6-Bromopyridin-2-yl)methyloxy-3-(5-methylisoxazol-3-yl)-1,2,4-triazolo[3,4-a]phthalazine], the melting point was in the range of 247.5 to 249 °C.
